The values that follow come from patent US20240109865A1, “INDAZOLE COMPOUNDS AS KINASE INHIBITORS” (TYRA BIOSCIENCES, INC., priority 2020, published 2024).

A value given as a limit tells only on which side of the number the result lay.

Test in all cases: Kinase assay, binding constants (Kd), kinase-tagged T7 phage, qPCR
One assay concerns the target FGFR1 (Homo sapiens (Human), UniProt P11362). Put shortly:
(§1)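 Using T7 phage lysates from BL21-derived E. coli, compounds at 0.9% final DMSO competed for kinase binding to ligand-bearing magnetic beads. After elution, qPCR measured remaining kinase, and Kds were fitted by non-linear least squares with the Hill slope fixed at −1.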

For another assay, the target named is FGFR4 (Homo sapiens (Human), UniProt P22455). A digest of the protocol: as §1
Sequence of FGFR4 (P22455 22-802): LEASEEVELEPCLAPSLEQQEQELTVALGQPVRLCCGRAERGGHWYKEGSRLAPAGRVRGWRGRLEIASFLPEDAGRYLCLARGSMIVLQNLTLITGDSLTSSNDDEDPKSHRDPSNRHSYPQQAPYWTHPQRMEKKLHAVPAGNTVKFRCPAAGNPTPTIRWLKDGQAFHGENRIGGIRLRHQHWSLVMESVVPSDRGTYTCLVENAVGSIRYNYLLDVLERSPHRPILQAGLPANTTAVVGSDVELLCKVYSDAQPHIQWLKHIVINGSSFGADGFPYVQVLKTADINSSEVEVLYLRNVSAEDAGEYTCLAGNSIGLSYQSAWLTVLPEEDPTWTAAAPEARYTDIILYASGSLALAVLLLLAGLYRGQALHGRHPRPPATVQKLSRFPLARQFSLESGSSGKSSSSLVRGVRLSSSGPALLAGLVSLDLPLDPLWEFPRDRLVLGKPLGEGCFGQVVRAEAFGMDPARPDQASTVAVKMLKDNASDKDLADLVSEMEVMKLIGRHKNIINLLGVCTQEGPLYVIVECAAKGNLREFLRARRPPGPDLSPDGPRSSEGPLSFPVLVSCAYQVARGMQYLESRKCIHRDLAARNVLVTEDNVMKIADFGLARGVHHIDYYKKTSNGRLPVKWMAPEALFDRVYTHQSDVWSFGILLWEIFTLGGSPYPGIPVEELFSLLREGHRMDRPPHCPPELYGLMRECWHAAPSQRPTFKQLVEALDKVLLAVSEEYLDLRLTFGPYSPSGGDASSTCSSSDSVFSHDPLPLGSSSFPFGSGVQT
In the next assay the target is FGFR3 (Homo sapiens (Human), UniProt P22607). A digest of the protocol:
as §1

The target of another assay is FGFR2 (Homo sapiens (Human), UniProt P21802). A digest of the protocol: as §1
Sequence of FGFR2 (P21802 22-821): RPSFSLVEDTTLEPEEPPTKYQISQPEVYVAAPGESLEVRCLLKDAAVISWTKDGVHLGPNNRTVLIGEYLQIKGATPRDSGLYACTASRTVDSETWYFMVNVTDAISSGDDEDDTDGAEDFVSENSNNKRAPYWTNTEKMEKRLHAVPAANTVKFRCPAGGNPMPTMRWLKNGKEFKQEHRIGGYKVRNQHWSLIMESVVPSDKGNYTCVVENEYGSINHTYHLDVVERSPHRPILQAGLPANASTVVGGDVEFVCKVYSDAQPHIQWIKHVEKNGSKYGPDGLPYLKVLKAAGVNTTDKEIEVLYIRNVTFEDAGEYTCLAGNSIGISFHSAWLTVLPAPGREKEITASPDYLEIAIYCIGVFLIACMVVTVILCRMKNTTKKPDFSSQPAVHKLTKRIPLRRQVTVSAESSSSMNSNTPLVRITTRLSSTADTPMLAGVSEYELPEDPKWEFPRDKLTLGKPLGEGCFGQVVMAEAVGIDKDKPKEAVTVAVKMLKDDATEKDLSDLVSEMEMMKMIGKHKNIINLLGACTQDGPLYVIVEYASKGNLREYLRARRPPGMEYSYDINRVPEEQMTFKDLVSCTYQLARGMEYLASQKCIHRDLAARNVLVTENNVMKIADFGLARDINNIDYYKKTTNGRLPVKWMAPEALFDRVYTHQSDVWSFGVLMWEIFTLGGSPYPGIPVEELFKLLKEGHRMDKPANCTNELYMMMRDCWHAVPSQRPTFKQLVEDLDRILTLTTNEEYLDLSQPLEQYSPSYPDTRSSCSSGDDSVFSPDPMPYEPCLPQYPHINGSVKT
The target of the next assay is FGFR3 (V555M) (Homo sapiens (Human), UniProt P22607, V555M). The following applies: V555M mutant. Put shortly:
as §1

Sequence of FGFR3 (V555M) (P22607 23-806 V555M): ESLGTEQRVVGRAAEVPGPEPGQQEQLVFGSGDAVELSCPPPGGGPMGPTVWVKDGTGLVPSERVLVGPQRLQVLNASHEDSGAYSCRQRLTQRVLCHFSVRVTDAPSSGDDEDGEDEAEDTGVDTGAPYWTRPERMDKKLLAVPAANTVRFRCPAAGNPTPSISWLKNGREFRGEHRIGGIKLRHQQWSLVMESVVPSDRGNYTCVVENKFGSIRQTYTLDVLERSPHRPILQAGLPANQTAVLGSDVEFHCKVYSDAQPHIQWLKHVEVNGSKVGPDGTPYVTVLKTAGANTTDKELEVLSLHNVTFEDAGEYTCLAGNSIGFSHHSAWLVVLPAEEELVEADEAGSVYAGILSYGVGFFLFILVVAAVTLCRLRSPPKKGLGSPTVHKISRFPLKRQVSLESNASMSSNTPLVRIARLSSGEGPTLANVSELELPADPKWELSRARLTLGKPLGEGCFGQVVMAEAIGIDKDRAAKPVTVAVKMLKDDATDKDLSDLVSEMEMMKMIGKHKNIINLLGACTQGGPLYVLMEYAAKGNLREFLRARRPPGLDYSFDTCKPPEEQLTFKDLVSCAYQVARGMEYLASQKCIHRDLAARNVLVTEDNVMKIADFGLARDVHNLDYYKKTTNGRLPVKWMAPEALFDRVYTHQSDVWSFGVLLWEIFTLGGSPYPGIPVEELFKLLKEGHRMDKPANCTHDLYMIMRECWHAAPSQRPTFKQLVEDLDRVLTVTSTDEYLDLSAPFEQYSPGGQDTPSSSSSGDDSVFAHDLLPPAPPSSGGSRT
Sequence of FGFR1 (P11362 22-822): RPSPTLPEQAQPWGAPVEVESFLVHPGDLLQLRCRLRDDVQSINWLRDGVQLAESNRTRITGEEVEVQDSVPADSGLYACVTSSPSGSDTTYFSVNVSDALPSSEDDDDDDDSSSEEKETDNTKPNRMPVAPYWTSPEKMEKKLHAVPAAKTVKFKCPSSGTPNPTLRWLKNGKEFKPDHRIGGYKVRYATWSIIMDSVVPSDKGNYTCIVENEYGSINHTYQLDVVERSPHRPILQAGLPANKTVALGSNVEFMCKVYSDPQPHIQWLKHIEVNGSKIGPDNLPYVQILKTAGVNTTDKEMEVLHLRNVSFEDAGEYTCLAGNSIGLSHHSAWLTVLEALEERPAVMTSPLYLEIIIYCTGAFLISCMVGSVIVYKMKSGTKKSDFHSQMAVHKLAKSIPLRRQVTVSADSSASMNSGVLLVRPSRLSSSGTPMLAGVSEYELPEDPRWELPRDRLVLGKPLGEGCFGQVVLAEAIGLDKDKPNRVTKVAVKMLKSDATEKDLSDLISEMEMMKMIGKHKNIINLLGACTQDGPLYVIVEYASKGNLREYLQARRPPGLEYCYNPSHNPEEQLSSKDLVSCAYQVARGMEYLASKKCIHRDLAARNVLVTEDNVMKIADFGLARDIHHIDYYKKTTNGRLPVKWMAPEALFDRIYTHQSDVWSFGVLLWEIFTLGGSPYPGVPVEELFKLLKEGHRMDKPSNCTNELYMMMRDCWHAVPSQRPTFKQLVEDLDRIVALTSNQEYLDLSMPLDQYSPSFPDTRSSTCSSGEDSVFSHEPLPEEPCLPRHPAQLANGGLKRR
Sequence of FGFR3 (P22607 23-806): as the sequence (P22607 23-806 V555M) above, with M533V counted along it

For orientation: Kd means the free concentration of one partner at which half of the binding sites on the other are occupied at equilibrium, for simple one-to-one binding. A high value points to weaker binding. As for `COc1cc2[nH]nc(-c3ccc(N4CCCC4)nc3)c2cc1O[C@H](C)c1c(C)cnnc1C` [Example 315, (R)-5-(1-(3,5-dimethylpyridazin-4-yl)ethoxy)-6-methoxy-3-(6-(pyrrolidin-1-yl)pyridin-3-yl)-1H-indazole], the Kd on FGFR1, at FGFR4, on FGFR3, at FGFR2 and at FGFR3 (V555M) was 1 to 20 nM in each case.
With `COc1cc2[nH]nc(-c3cnc(N4CC[C@H](C(C)(C)O)C4)c(C#N)c3)c2cc1O[C@H](C)c1c(C)cnnc1C` [Example 316, 5-(5-((R)-1-(3,5-dimethylpyridazin-4-yl)ethoxy)-6-methoxy-1H-indazol-3-yl)-2-((S)-3-(2-hydroxypropan-2-yl)pyrrolidin-1-yl)nicotinonitrile], the Kd on FGFR1 is 20 to 100 nM; on FGFR4, 1 to 20 nM; at FGFR3 it was 1 to 20 nM; at FGFR2 it was 20 to 100 nM; at FGFR3 (V555M) it was 1 to 20 nM.
Turning to `COc1cc2[nH]nc(-c3cnc(N4CC5CC(C4)N5)c(C)c3)c2cc1O[C@H](C)c1c(C)cnnc1C` [Example 317, 3-(5-(5-((R)-1-(3,5-dimethylpyridazin-4-yl)ethoxy)-6-methoxy-1H-indazol-3-yl)-3-methylpyridin-2-yl)-3,6-diazabicyclo[3.1.1]heptane], the Kd on FGFR1, at FGFR4, at FGFR3, on FGFR2 and on FGFR3 (V555M) was 1 to 20 nM in each case.
Consider `Cc1cnnc(C)c1[C@@H](C)Oc1ccc2[nH]nc(-c3cnc(N4CC(O)C4)c(C#N)c3)c2c1` [Example 318, (R)-5-(5-(1-(3,5-dimethylpyridazin-4-yl)ethoxy)-1H-indazol-3-yl)-2-(3-hydroxyazetidin-1-yl)nicotinonitrile], for which the Kd at FGFR1 is 100 to 300 nM; at FGFR4 it was 1 to 20 nM; on FGFR3 it was 20 to 100 nM; at FGFR2 it was 100 to 300 nM; on FGFR3 (V555M) it was 1 to 20 nM.
On to `COc1cc2[nH]nc(-c3cnc(N4CC[C@@H](O)C4)c(C#N)c3)c2cc1O[C@H](C)c1c(C)cnnc1C` [Example 319, 5-(5-((R)-1-(3,5-dimethylpyridazin-4-yl)ethoxy)-6-methoxy-1H-indazol-3-yl)-2-((R)-3-hydroxypyrrolidin-1-yl)nicotinonitrile], for which the Kd at FGFR1 is 20 to 100 nM; on FGFR4 it was 1 to 20 nM; at FGFR3, 1 to 20 nM; on FGFR2 it was 20 to 100 nM; on FGFR3 (V555M), 1 to 20 nM.
`COc1cc2[nH]nc(-c3cnc(N4CC(O)C4)c(C#N)c3)c2cc1O[C@H](C)c1c(C)cnnc1C` [Example 320, (R)-5-(5-(1-(3,5-dimethylpyridazin-4-yl)ethoxy)-6-methoxy-1H-indazol-3-yl)-2-(3-hydroxyazetidin-1-yl)nicotinonitrile]: the Kd was 20 to 100 nM on FGFR1; 1 to 20 nM at FGFR4; 20 to 100 nM on FGFR3; 20 to 100 nM at FGFR2; 1 to 20 nM at FGFR3 (V555M).
Turning to `COc1cc2[nH]nc(-c3cnc(N4CC[C@@H](C(C)(C)O)C4)c(C#N)c3)c2cc1O[C@H](C)c1c(C)cnnc1C` [Example 321, 5-(5-((R)-1-(3,5-dimethylpyridazin-4-yl)ethoxy)-6-methoxy-1H-indazol-3-yl)-2-((R)-3-(2-hydroxypropan-2-yl)pyrrolidin-1-yl)nicotinonitrile], the Kd on FGFR1 lay in the range of 20 to 100 nM; on FGFR4, 1 to 20 nM; at FGFR3 it was 1 to 20 nM; on FGFR2, 1 to 20 nM; at FGFR3 (V555M), 1 to 20 nM.
As to `COc1cc2[nH]nc(-c3cnc(N4CCC4)c(C#N)c3)c2cc1O[C@H](C)c1c(C)cnnc1C` [Example 322, (R)-2-(azetidin-1-yl)-5-(5-(1-(3,5-dimethylpyridazin-4-yl)ethoxy)-6-methoxy-1H-indazol-3-yl)nicotinonitrile], the Kd at FGFR1 lay within 100 to 300 nM; at FGFR4, 1 to 20 nM; on FGFR3 it was 20 to 100 nM; on FGFR2, 20 to 100 nM; on FGFR3 (V555M) it was 1 to 20 nM.
For `COc1cc(-c2n[nH]c3ccc(O[C@H](C)c4c(C)cnnc4C)cc23)cnc1N1CC2CC(C1)N2CC(C)(C)O` [Example 323, 1-(3-(5-(5-((R)-1-(3,5-dimethylpyridazin-4-yl)ethoxy)-1H-indazol-3-yl)-3-methoxypyridin-2-yl)-3,6-diazabicyclo[3.1.1]heptan-6-yl)-2-methylpropan-2-ol], the Kd on FGFR1 is above 300 nM; on FGFR4, 1 to 20 nM; on FGFR3 it was above 300 nM; at FGFR2, above 300 nM; at FGFR3 (V555M) it was 20 to 100 nM.
Take `COc1cc2[nH]nc(-c3cnc(N4CC5(COC5)C4)c(C#N)c3)c2cc1O[C@H](C)c1c(C)cnnc1C` [Example 324, (R)-5-(5-(1-(3,5-dimethylpyridazin-4-yl)ethoxy)-6-methoxy-1H-indazol-3-yl)-2-(2-oxa-6-azaspiro[3.3]heptan-6-yl)nicotinonitrile]: the Kd is 20 to 100 nM on FGFR1; 1 to 20 nM at FGFR4; 20 to 100 nM on FGFR3; 20 to 100 nM at FGFR2; 1 to 20 nM on FGFR3 (V555M).
For the compound `Cc1cnnc(C)c1[C@@H](C)Oc1ccc2[nH]nc(-c3cnc(N4CCN5C(=O)NCC5C4)c(C#N)c3)c2c1` (stereo partly drawn) [Example 325, 5-(5-((R)-1-(3,5-dimethylpyridazin-4-yl)ethoxy)-1H-indazol-3-yl)-2-(3-oxohexahydroimidazo[1,5-a]pyrazin-7(1H)-yl)nicotinonitrile], the Kd lay in the range of 20 to 100 nM on FGFR1; 1 to 20 nM at FGFR4; 1 to 20 nM on FGFR3; 1 to 20 nM at FGFR2; 1 to 20 nM at FGFR3 (V555M).
Regarding `COc1cc2[nH]nc(-c3cnc(N4CC(O)C4)c(C#N)c3)c2cc1O[C@H](C)c1c(Cl)cncc1Cl` [Example 326, 5-[5-[(1R)-1-(3,5-dichloro-4-pyridyl)ethoxy]-6-methoxy-1H-indazol-3-yl]-2-(3-hydroxyazetidin-1-yl)pyridine-3-carbonitrile], the Kd on FGFR1 is 20 to 100 nM; on FGFR4, 1 to 20 nM; on FGFR3, 1 to 20 nM; on FGFR2 it was 20 to 100 nM; on FGFR3 (V555M), 1 to 20 nM.
Consider `COc1cc2[nH]nc(-c3cnc(N4CC[C@H](O)C4)c(C#N)c3)c2cc1O[C@H](C)c1c(Cl)cncc1Cl` [Example 327, 5-[5-[(1R)-1-(3,5-dichloro-4-pyridyl)ethoxy]-6-methoxy-1H-indazol-3-yl]-2-[(3S)-3-hydroxypyrrolidin-1-yl]pyridine-3-carbonitrile], for which the Kd on FGFR1, on FGFR4, on FGFR3, on FGFR2 and on FGFR3 (V555M) was 1 to 20 nM in each case.
For the compound `COc1cc(-c2n[nH]c3ccc(O[C@H](C)c4c(C)cnnc4C)cc23)cnc1N1CCN2C(=O)NCC2C1` (stereo partly drawn) [Example 328, 7-(5-(5-((R)-1-(3,5-dimethylpyridazin-4-yl)ethoxy)-1H-indazol-3-yl)-3-methoxypyridin-2-yl)hexahydroimidazo[1,5-a]pyrazin-3(2H)-one], the Kd is 100 to 300 nM at FGFR1; 1 to 20 nM on FGFR4; 100 to 300 nM on FGFR3; 100 to 300 nM at FGFR2; 20 to 100 nM at FGFR3 (V555M).
Turning to `C[C@@H](Oc1ccc2[nH]nc(-c3cnc(N4CC5(CN(CC(F)(F)F)C5)C4)c(C#N)c3)c2c1)c1c(Cl)cncc1Cl` [Example 329, (R)-5-(5-(1-(3,5-dichloropyridin-4-yl)ethoxy)-1H-indazol-3-yl)-2-(6-(2,2,2-trifluoroethyl)-2,6-diazaspiro[3.3]heptan-2-yl)nicotinonitrile], the Kd at FGFR1 is 100 to 300 nM; at FGFR4, 1 to 20 nM; at FGFR3 it was 20 to 100 nM; at FGFR2, above 300 nM; at FGFR3 (V555M), 1 to 20 nM.
For `C[C@@H](Oc1ccc2[nH]nc(-c3cnc(N4CC5(CN(CC(F)F)C5)C4)c(C#N)c3)c2c1)c1c(Cl)cncc1Cl` [Example 330, (R)-5-(5-(1-(3,5-dichloropyridin-4-yl)ethoxy)-1H-indazol-3-yl)-2-(6-(2,2-difluoroethyl)-2,6-diazaspiro[3.3]heptan-2-yl)nicotinonitrile], the equilibrium dissociation constant (Kd) fell in the range of 100 to 300 nM at FGFR1; 1 to 20 nM at FGFR4; 20 to 100 nM at FGFR3; 100 to 300 nM at FGFR2; 1 to 20 nM at FGFR3 (V555M).
For the compound `C[C@@H](Oc1ccc2[nH]nc(-c3cnc(N4CC5C(O)C5C4)c(C#N)c3)c2c1)c1c(Cl)cncc1Cl` (stereo partly drawn) [Example 331, 5-(5-((R)-1-(3,5-dichloropyridin-4-yl)ethoxy)-1H-indazol-3-yl)-2-(6-hydroxy-3-azabicyclo[3.1.0]hexan-3-yl)nicotinonitrile], the Kd at FGFR1 fell in the range of 100 to 300 nM; on FGFR4 it was 1 to 20 nM; at FGFR3, 1 to 20 nM; on FGFR2 it was 100 to 300 nM; on FGFR3 (V555M), 1 to 20 nM.
For the compound `C[C@@H](Oc1ccc2[nH]nc(-c3cnc(N4CCC[C@@H]4CO)c(C#N)c3)c2c1)c1c(Cl)cncc1Cl` [Example 332, 5-(5-((R)-1-(3,5-dichloropyridin-4-yl)ethoxy)-1H-indazol-3-yl)-2-((R)-2-(hydroxymethyl)pyrrolidin-1-yl)nicotinonitrile], the Kd on FGFR1 lay in the range of 20 to 100 nM; on FGFR4, 1 to 20 nM; on FGFR3 it was 1 to 20 nM; at FGFR2 it was 20 to 100 nM; on FGFR3 (V555M), 1 to 20 nM.
Regarding `COc1cc2[nH]nc(-c3cnc(N4CCCC4)c(C#N)c3)c2cc1O[C@H](C)c1c(Cl)cncc1Cl` [Example 333, 5-[5-[(1R)-1-(3,5-dichloro-4-pyridyl)ethoxy]-6-methoxy-1H-indazol-3-yl]-2-pyrrolidin-1-yl-pyridine-3-carbonitrile], the Kd on FGFR1 lay within 100 to 300 nM; on FGFR4, 1 to 20 nM; at FGFR3 it was 20 to 100 nM; on FGFR2 it was 100 to 300 nM; at FGFR3 (V555M), 1 to 20 nM.
